# Reference: patent US9340590B2 (priority 2011, dated 2016)
# Read-outs that look alike come from different tables or passages of the source. Positions of bridges follow the written chain, without caps; N, C: chain ends. Non-standard residues stand in square brackets, D forms with d. Residues, ends and D or L forms follow the SMILES beside them. Groups on a side chain read outwards from the residue. Pra = C#CC[C@H](N)C(=O)O; Abu = CC[C@H](N)C(=O)O
# Assays:
# Experiment in all cases: cell-based
# hNav1.7 = hNav1.7 (Homo sapiens, UniProt Q15858); assay type: cell-based; conditions: IonWorks Quattro, read-out: IWQ Use Nav1.7
# hNav1.7, sequence (Q15858 whole entry, looked up): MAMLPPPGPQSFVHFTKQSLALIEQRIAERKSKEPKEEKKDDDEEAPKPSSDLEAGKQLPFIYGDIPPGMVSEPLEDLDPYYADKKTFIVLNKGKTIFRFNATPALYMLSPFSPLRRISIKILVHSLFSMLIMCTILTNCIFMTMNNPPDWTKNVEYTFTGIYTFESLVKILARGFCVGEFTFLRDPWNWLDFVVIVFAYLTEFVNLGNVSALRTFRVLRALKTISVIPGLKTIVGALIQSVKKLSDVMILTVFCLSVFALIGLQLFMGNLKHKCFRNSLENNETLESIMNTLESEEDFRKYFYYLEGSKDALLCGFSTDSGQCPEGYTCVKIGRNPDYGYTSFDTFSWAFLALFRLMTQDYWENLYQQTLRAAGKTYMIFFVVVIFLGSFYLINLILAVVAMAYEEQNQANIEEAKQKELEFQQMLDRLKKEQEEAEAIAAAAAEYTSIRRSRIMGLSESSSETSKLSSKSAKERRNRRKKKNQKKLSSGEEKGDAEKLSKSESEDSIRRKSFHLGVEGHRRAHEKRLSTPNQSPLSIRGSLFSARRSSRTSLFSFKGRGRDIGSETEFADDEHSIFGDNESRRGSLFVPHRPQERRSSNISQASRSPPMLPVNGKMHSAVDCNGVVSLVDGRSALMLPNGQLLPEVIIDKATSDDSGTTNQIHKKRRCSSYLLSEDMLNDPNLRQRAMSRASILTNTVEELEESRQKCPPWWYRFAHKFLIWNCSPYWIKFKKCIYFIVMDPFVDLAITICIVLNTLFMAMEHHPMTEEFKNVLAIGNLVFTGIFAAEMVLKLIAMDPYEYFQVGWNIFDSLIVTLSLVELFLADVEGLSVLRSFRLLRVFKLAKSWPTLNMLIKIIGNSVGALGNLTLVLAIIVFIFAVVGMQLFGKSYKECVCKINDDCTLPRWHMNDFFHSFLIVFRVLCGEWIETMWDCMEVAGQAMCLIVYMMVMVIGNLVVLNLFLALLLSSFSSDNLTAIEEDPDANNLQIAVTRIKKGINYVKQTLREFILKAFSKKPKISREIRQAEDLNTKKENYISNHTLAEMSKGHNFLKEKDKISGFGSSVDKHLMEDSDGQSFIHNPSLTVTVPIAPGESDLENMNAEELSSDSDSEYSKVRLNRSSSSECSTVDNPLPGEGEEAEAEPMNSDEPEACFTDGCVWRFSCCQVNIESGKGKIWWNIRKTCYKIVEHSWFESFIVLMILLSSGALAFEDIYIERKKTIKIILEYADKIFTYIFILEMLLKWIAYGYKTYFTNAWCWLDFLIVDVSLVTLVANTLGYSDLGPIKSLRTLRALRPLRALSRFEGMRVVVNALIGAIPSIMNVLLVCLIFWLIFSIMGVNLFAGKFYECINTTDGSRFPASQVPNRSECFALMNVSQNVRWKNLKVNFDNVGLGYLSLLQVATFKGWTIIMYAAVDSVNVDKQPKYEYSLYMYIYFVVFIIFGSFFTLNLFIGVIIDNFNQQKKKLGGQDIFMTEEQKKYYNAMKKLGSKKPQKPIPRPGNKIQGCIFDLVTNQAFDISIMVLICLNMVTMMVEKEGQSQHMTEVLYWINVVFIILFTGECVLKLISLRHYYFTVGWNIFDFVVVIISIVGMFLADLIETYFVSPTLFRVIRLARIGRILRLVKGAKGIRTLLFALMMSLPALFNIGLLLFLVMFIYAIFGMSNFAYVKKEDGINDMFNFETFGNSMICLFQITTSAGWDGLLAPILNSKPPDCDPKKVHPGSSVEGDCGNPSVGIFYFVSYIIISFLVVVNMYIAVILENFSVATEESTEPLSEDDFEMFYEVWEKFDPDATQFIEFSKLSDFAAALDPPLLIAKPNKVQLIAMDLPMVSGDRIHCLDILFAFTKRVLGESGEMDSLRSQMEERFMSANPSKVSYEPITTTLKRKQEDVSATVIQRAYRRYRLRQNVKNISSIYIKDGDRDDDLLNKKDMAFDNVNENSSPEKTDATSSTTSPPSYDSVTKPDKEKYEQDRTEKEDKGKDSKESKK
# hNav1.5 = hNav1.5 (Homo sapiens, UniProt Q14524)
# hNav1.3 = hNav1.3 (Homo sapiens, UniProt Q9NY46); conditions: IonWorks Quattro, read-out: IWQ Use Nav1.3
# hNav1.3, sequence (Q9NY46 whole entry, looked up): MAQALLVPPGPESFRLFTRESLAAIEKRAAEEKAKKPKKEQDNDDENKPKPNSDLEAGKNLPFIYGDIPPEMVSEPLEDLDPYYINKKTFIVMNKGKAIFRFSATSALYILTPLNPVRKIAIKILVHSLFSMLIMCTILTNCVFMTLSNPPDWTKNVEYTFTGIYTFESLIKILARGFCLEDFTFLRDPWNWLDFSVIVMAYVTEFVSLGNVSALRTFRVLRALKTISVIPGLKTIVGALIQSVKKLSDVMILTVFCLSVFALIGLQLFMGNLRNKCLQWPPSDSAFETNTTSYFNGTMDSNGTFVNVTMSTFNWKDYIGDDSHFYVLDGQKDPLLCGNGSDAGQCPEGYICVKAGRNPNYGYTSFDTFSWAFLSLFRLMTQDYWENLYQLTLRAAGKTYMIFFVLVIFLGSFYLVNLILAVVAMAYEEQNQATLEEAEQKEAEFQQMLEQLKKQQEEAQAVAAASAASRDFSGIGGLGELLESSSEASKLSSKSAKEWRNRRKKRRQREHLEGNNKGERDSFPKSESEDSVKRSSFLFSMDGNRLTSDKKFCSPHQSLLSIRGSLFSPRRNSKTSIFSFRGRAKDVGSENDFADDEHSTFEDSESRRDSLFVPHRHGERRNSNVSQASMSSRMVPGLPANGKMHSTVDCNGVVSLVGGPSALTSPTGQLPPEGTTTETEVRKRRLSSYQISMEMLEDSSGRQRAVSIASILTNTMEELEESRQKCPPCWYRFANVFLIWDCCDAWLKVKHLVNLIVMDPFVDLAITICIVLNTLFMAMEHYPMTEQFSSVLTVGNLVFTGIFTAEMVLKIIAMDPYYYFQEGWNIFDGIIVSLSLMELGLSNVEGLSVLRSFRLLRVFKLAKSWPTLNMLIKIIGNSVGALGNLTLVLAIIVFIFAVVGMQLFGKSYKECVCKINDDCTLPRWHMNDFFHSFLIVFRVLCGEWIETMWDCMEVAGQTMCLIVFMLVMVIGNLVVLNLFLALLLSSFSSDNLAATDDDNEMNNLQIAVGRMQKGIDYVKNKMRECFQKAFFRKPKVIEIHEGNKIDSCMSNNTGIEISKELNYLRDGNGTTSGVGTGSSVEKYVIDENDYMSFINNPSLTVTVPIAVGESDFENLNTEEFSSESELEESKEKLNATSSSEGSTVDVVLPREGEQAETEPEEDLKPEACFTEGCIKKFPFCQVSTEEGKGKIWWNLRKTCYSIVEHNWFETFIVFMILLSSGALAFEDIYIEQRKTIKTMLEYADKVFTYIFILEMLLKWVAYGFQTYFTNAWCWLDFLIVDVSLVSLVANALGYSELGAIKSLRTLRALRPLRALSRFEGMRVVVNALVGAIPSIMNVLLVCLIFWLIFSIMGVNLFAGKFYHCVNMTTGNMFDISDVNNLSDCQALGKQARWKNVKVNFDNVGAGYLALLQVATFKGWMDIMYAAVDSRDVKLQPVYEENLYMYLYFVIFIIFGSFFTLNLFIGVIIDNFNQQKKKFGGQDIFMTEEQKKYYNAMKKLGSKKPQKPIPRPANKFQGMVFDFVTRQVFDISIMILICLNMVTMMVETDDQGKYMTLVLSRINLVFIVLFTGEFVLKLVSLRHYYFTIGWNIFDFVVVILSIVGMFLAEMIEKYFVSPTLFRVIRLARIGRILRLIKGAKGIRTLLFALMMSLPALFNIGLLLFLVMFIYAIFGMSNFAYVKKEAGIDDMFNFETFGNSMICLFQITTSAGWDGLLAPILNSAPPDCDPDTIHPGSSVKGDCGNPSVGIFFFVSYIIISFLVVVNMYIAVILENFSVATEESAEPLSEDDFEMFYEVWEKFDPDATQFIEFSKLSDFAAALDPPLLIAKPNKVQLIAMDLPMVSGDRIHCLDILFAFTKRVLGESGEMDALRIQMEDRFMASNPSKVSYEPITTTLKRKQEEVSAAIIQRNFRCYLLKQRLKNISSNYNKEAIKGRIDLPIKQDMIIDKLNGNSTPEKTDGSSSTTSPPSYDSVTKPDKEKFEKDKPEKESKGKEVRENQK
# [1] = IonWorks Quattro, use-dependent block, hNav1.5, read-out: IWQ Use Nav1.5
Compound,"IC50 (hNav1.7; use-dependent block, hNav1.7) [nM]",IC50 (hNav1.5; [1]) [nM],"IC50 (hNav1.3; use-dependent block, hNav1.3) [nM]",further results
"CC[C@H](C)[C@@H]1NC(=O)[C@@H]2CSSC[C@@H]3NC(=O)[C@H](C(C)C)NC(=O)[C@H](CC(C)C)NC(=O)[C@H](CC(N)=O)NC(=O)[C@@H]4CCCN4C(=O)[C@H](CCCNC(=N)N)NC(=O)[C@H](CSSC[C@H](NC(=O)[C@@H](N)CC(=O)O)C(=O)N[C@@H](CC(C)C)C(=O)NCC(=O)N[C@@H](Cc4ccccc4)C(=O)N[C@@H](CCSC)C(=O)N[C@@H](CCCNC(=N)N)C(=O)N[C@@H](CCCCN)C(=O)N2)NC(=O)[C@H](CSSC[C@@H](C(=O)N[C@@H](CCCCN)C(=O)N[C@@H](Cc2ccc(O)cc2)C(=O)N[C@H](C(=O)N[C@@H](Cc2ccccc2)C(N)=O)C(C)C)NC(=O)[C@H](Cc2c[nH]c4ccccc24)NC(=O)[C@H](CCCCN)NC(=O)[C@H](Cc2c[nH]cn2)NC(=O)[C@H]([C@@H](C)O)NC(=O)[C@H](CCCNC(=N)N)NC(=O)[C@H](CO)NC3=O)NC(=O)[C@H](CCCCN)NC(=O)[C@H](CC(=O)O)NC(=O)[C@H](CC(N)=O)NC(=O)[C@H]([C@@H](C)O)NC(=O)[C@@H]2CCCN2C1=O [compound 196] (H-DCLGFMRKCIPTNDKCCRPNLVCSRTHKWCKYVF-NH2; disulfide 2-17, 9-23, 16-30)",–,–,–,"IC50 (hNav1.7; Use): 97 nM; IC50 (hNav1.5; IonWorks Quattro, Use, read-out: IWQ Use Nav1.5): 7080 nM; IC50 (hNav1.3; Use): 74 nM"
"CC[C@H](C)[C@@H]1NC(=O)[C@@H]2CSSC[C@@H]3NC(=O)[C@H](C(C)C)NC(=O)[C@H](CC(C)C)NC(=O)[C@H](CC(N)=O)NC(=O)[C@@H]4CCCN4C(=O)[C@H](CCCNC(=N)N)NC(=O)[C@H](CSSC[C@H](NC(=O)[C@@H](N)CC(=O)O)C(=O)N[C@@H](CC(C)C)C(=O)NCC(=O)N[C@@H](C)C(=O)N[C@@H](CCSC)C(=O)N[C@@H](CCCNC(=N)N)C(=O)N[C@@H](CCCCN)C(=O)N2)NC(=O)[C@H](CSSC[C@@H](C(=O)N[C@@H](CCCCN)C(=O)N[C@@H](Cc2ccc(O)cc2)C(=O)N[C@H](C(=O)N[C@@H](Cc2ccccc2)C(N)=O)C(C)C)NC(=O)[C@H](Cc2c[nH]c4ccccc24)NC(=O)[C@H](CC(C)C)NC(=O)[C@H](Cc2c[nH]cn2)NC(=O)[C@H]([C@@H](C)O)NC(=O)[C@H](CCCNC(=N)N)NC(=O)[C@H](CO)NC3=O)NC(=O)[C@H](CCCCN)NC(=O)[C@H](CC(=O)O)NC(=O)[C@H](CC(N)=O)NC(=O)[C@H](CC(=O)O)NC(=O)[C@@H]2CCCN2C1=O [compound 766] (H-DCLGAMRKCIPDNDKCCRPNLVCSRTHLWCKYVF-NH2; disulfide 2-17, 9-23, 16-30)",1100,49300,2700,–
"CC[C@H](C)[C@@H]1NC(=O)[C@@H]2CSSC[C@@H]3NC(=O)[C@H](C(C)C)NC(=O)[C@H](CC(C)C)NC(=O)[C@H](CC(N)=O)NC(=O)[C@@H]4CCCN4C(=O)[C@H](CCCNC(=N)N)NC(=O)[C@H](CSSC[C@H](NC(=O)[C@H](CC(=O)O)NC(=O)[C@H](CO)NC(=O)CN)C(=O)N[C@@H](CC(C)C)C(=O)NCC(=O)N[C@@H](C)C(=O)N[C@@H](Cc4ccccc4)C(=O)N[C@@H](CCCNC(=N)N)C(=O)N[C@@H](CCCCN)C(=O)N2)NC(=O)[C@H](CSSC[C@@H](C(=O)N[C@@H](CCCCN)C(=O)N[C@@H](Cc2ccc(O)cc2)C(=O)N[C@H](C(=O)N[C@@H](Cc2ccccc2)C(=O)N[C@@H](Cc2ccccc2)C(=O)O)C(C)C)NC(=O)[C@H](Cc2c[nH]c4ccccc24)NC(=O)[C@H](CCCNC(=N)N)NC(=O)[C@H](Cc2c[nH]cn2)NC(=O)[C@H]([C@@H](C)O)NC(=O)[C@H](CCCNC(=N)N)NC(=O)[C@H](CO)NC3=O)NC(=O)[C@H](CCCCN)NC(=O)[C@H](CC(=O)O)NC(=O)[C@H](CC(N)=O)NC(=O)[C@H](CC(=O)O)NC(=O)[C@@H]2CCCN2C1=O [compound 819] (H-GSDCLGAFRKCIPDNDKCCRPNLVCSRTHRWCKYVFF-OH; disulfide 4-19, 11-25, 18-32)",1500,> 5000,500,–
CCCCCCCC[C@@H]1NC(=O)CNC(=O)[C@H](CC(C)C)NC(=O)[C@@H](NC(=O)[C@@H](N)CC(=O)O)CSSC[C@@H]2NC(=O)[C@@H]3CSSC[C@@H](C(=O)N[C@@H](CCCCN)C(=O)N[C@@H](Cc4ccc(O)cc4)C(=O)N[C@H](C(=O)N[C@@H](Cc4ccccc4)C(N)=O)C(C)C)NC(=O)[C@H](Cc4c[nH]c5ccccc45)NC(=O)[C@H](CCCCN)NC(=O)[C@H](Cc4c[nH]cn4)NC(=O)[C@H]([C@@H](C)O)NC(=O)[C@H](CCCNC(=N)N)NC(=O)[C@H](CO)NC(=O)[C@H](CSSC[C@H](NC(=O)[C@H](CCCCN)NC(=O)[C@H](CCCNC(=N)N)NC(=O)[C@H](CCSC)NC1=O)C(=O)N[C@@H]([C@@H](C)CC)C(=O)N1CCC[C@H]1C(=O)N[C@@H](CC(=O)O)C(=O)N[C@@H](CC(N)=O)C(=O)N[C@@H](CC(=O)O)C(=O)N[C@@H](CCCCN)C(=O)N3)NC(=O)[C@H](C(C)C)NC(=O)[C@H](CC(C)C)NC(=O)[C@H](CC(N)=O)NC(=O)[C@@H]1CCCN1C(=O)[C@H](CCCNC(=N)N)NC2=O [compound 677],–,–,–,"IC50 (hNav1.7; use-dependent protocol, hNav1.7): 170 nM; IC50 (hNav1.5; IWQ Use Nav1.5): > 5000 nM; IC50 (hNav1.3; use-dependent protocol, hNav1.3): 170 nM"
"CC[C@H](C)[C@@H]1NC(=O)[C@@H]2CSSC[C@@H]3NC(=O)[C@H](C(C)C)NC(=O)[C@H](CC(C)C)NC(=O)[C@H](CC(N)=O)NC(=O)[C@@H]4CCCN4C(=O)[C@H](CCCNC(=N)N)NC(=O)[C@H](CSSC[C@H](NC(=O)[C@H](CC(=O)O)NC(=O)[C@H](CO)NC(=O)CN)C(=O)N[C@@H](CC(C)C)C(=O)NCC(=O)N[C@@H](C)C(=O)N[C@@H](CC(C)C)C(=O)N[C@@H](CCCNC(=N)N)C(=O)N[C@@H](CCCCN)C(=O)N2)NC(=O)[C@H](CSSC[C@@H](C(=O)N[C@@H](CCCCN)C(=O)N[C@@H](Cc2ccc(O)cc2)C(=O)N[C@H](C(=O)N[C@@H](Cc2ccccc2)C(N)=O)C(C)C)NC(=O)[C@H](Cc2c[nH]c4ccccc24)NC(=O)[C@H](CCCNC(=N)N)NC(=O)[C@H](Cc2c[nH]cn2)NC(=O)[C@H]([C@@H](C)O)NC(=O)[C@H](CCCNC(=N)N)NC(=O)[C@H](CO)NC3=O)NC(=O)[C@H](CCCCN)NC(=O)[C@H](CC(=O)O)NC(=O)[C@H](CC(N)=O)NC(=O)[C@H](CC(=O)O)NC(=O)[C@@H]2CCCN2C1=O [compound 812] (H-GSDCLGALRKCIPDNDKCCRPNLVCSRTHRWCKYVF-NH2; disulfide 4-19, 11-25, 18-32)",200,> 5000,200,–
"C#CC[C@H](NC(C)=O)C(=O)NCCCC[C@@H]1NC(=O)[C@H](CC(=O)O)NC(=O)[C@@H]2CCCN2C(=O)[C@H]([C@@H](C)CC)NC(=O)[C@@H]2CSSC[C@@H]3NC(=O)[C@H](C(C)C)NC(=O)[C@H](CC(C)C)NC(=O)[C@H](CC(N)=O)NC(=O)[C@@H]4CCCN4C(=O)[C@H](CCCNC(=N)N)NC(=O)[C@H](CSSC[C@H](NC(=O)[C@@H](N)CC(=O)O)C(=O)N[C@@H](CC(C)C)C(=O)NCC(=O)N[C@@H](CC)C(=O)N[C@@H](CC(C)C)C(=O)N[C@@H](CCCNC(=N)N)C(=O)N[C@@H](CCCCN)C(=O)N2)NC(=O)[C@H](CSSC[C@@H](C(=O)N[C@@H](CCCCN)C(=O)N[C@@H](Cc2ccc(O)cc2)C(=O)N[C@H](C(=O)N[C@@H](Cc2ccccc2)C(N)=O)C(C)C)NC(=O)[C@H](Cc2c[nH]c4ccccc24)NC(=O)[C@H](CCCCN)NC(=O)[C@H](Cc2c[nH]cn2)NC(=O)[C@H]([C@@H](C)O)NC(=O)[C@H](CCCNC(=N)N)NC(=O)[C@H](CO)NC3=O)NC(=O)[C@H](CCCCN)NC(=O)[C@H](CC(=O)O)NC1=O [compound 799] (H-DCLG[Abu]LRKCIPDK([Pra-Ac])DKCCRPNLVCSRTHKWCKYVF-NH2; disulfide 2-17, 9-23, 16-30)",750,28100,700,–
"CC[C@H](C)[C@@H]1NC(=O)[C@@H]2CSSC[C@@H]3NC(=O)[C@H](C(C)C)NC(=O)[C@H](CC(C)C)NC(=O)[C@H](Cc4c[nH]c5ccccc45)NC(=O)[C@@H]4CCCN4C(=O)[C@H](CCCNC(=N)N)NC(=O)[C@H](CSSC[C@H](NC(=O)[C@@H](N)CC(=O)O)C(=O)N[C@@H](CC(C)C)C(=O)NCC(=O)N[C@@H](C)C(=O)N[C@@H](CCSC)C(=O)N[C@@H](CCCNC(=N)N)C(=O)N[C@@H](CCCCN)C(=O)N2)NC(=O)[C@H](CSSC[C@@H](C(=O)N[C@@H](CCCCN)C(=O)N[C@@H](Cc2ccc(O)cc2)C(=O)N[C@H](C(=O)N[C@@H](Cc2ccccc2)C(N)=O)C(C)C)NC(=O)[C@H](Cc2c[nH]c4ccccc24)NC(=O)[C@H](CCCCN)NC(=O)[C@H](Cc2c[nH]cn2)NC(=O)[C@H]([C@@H](C)O)NC(=O)[C@H](CCCNC(=N)N)NC(=O)[C@H](CO)NC3=O)NC(=O)[C@H](CCCCN)NC(=O)[C@H](CC(=O)O)NC(=O)[C@H](CC(N)=O)NC(=O)[C@H](CC(=O)O)NC(=O)[C@@H]2CCCN2C1=O [compound 422] (H-DCLGAMRKCIPDNDKCCRPWLVCSRTHKWCKYVF-NH2; disulfide 2-17, 9-23, 16-30)",280,> 5000,390,–
